Measured values taken from patent publication US20210369691A1, “METHODS AND COMPOSITIONS FOR IMPROVING BONE MARROW HEMATOPOIETIC FUNCTIONS” (Sun Yat-Sen University, priority 2018, published 2021).

Tests used:
Type in all cases: in vivo, mice
[1] = system: hematopoietic stem cells; assay: Serial transplantation repopulation assay of bone marrow cells after 5FU and ABC294640 treatment
Text: FIG. 28. illustrates the quantification of functional HSCs by transplantation assay. 2×10^5 bone marrow cells from C57BL/6J mice after 5FU and ABC294640 or vehicle control treatment were transplanted into […] mice along with 2×10^5 recipient bone marrow cells. 1×10^6 bone marrow cells from primary or secondary recipient mice were transplanted into […] mice in secondary or tertiary recipients respectively. PB analysis for total engrafted donor cells at the indicated number of weeks after transplantation. FIG. 29. illustrates the percentage of donor-derived B, T and myeloid lineage cells at 16 weeks after transplantation. Repopulation analyses was also performed to investigate whether ABC294640 treatment functionally promotes HSC regeneration after chemotherapeutic stress.

[2] = system: platelets; assay: Platelet recovery after bone marrow transplantation; details: 7-35 days after bone marrow transplantation; ABC294640 10 mg/kg every other day; vs solvent control
Experimental: (§1) Twenty-five 8-week-old C57 mice (purchased from Laboratory Animal Center, Sun Yat-sen University) were selected and kept in a specific pathogen free (SPF) environment. 5 mice were randomly selected and sacrificed by cervical dislocation. Femurs and tibias were taken and the bone marrow was obtained from the bone marrow cavity with an 1 ml syringe. Bone marrow was dispersed to form a single cell suspension and lysed with red blood cell lysis buffer for 2 min to remove red blood cells, followed by filtering through a 70 μm filter screen to obtain a single cell suspension. The other 20 mice were treated with X-ray radiation at a dose of 900 cGy, and were injected with 400,000 of the prepared bone marrow single cell suspension via tail vein, respectively. Then, the recipient mice were divided evenly into 2 groups, and mice of the ABC294640 treatment group were subjected to intraperitoneal injection of ABC294640 every other day. Mice in the control group was injected with a solvent solution control (1:1 of physiological saline: PEG400) solution. ABC294640 was purchased from Selleck and dissolved in dimethyl sulfoxide (DMSO), and diluted with a mixture solution of polyethylene glycol 400 (PEG400) and physiological saline (1:1) to be administered at a dose of 10 mg/kg.
Preparation of SphK2 inhibitors was as described in Example 10. […]

[3] = system: white blood cells; assay: White blood cell recovery in peripheral blood after X-ray radiation; details: after X-ray 450 cGy; ABC294640 10 mg/kg i.p. every other day; days 0, 1, 7, 14; vs solvent control; FIG. 7
Experimental: Preparation of SphK2 inhibitors was as described in Example 4. Twelve 8-week-old C57 mice purchased from Laboratory Animal Center, Sun Yat-sen University were selected and divided evenly into two groups. The mice were treated with X-ray radiation at a dose of 450 cGy. The injection of the inhibitor ABC294640 and the solvent control solution was as described in Example 4. Intraperitoneal injection of the inhibitor or the solvent control solution started from the day after the X-ray radiation, followed by injections once every other day, at a dose of 10 mg/kg, until the end of the experiment. Periphery blood (PB) of each mouse was separately collected to determine white blood cell (WBC) counts 0, 1, 7 and 14 days after X-ray radiation. T-test analysis was carried out using Graphpad6.0, and differences were considered statistically significant when P<0.05.

[4] = Survival after serial 5FU challenges every 7 days with ABC294640 every other day; details: vs control, FIG. 30
Experimental: FIG. 30. illustrates the survival of C57BL/6J mice after serious 5FU treatment every 7 days and ABC294640 treatment every other day (n=10 mice group).
Repopulation analyses was also performed to investigate whether ABC294640 treatment functionally promotes HSC regeneration after chemotherapeutic stress.

[5] = system: hematopoietic stem cells; assay: Hematopoietic stem cell number after bone marrow transplantation; details: 35 days after bone marrow transplantation (900 cGy); ABC294640 10 mg/kg i.p. every other day; **P<0.01; FIG. 10
Experimental: as §1, with “solution. […] Statistical quantification” for “solution. ABC294640”, “was performed to determine the number of hematopoietic stem cells using the molecular marker system Lin-Sca-1+c-Kit+CD150+CD48−” for “was purchased from Selleck and dissolved”, “in combination” for “in dimethyl sulfoxide (DMSO), and diluted”, “with flow cytometry. […]” for “with a mixture solution of polyethylene glycol 400 (PEG400) and physiological saline (1:1) to be administered at a dose of 10 mg/kg.”

[6] = 16 weeks after transplantation, FIG. 29
[7] = at 16 weeks, donor bone marrow after 5FU and ABC294640 vs solvent control, FIG. 28

O=C(NCc1ccncc1)C12CC3CC(C1)CC(c1ccc(Cl)cc1)(C3)C2 [ABC294640, 3-(4-chloro-phenyl)-adamantane-1-carboxylic acid (pyridin-4-ylmethyl)-amide]
lymphopoiesis in recipients [1, 6]: markedly promoted lymphopoiesis
myeloid skewing in recipients [1, 6]: suppressed myeloid skewing
increase of reconstitution, primary transplantation [1, 7]: about 1.7 fold
increase of reconstitution, secondary transplantation [1, 7]: about 1.5 fold
increase of reconstitution, tertiary transplantation [1, 7]: about 1.9 fold
number of platelets in the peripheral blood [2]: significantly (*P<0.05, and ***P<0.001) increased
number of white blood cells from the peripheral blood [3]: significantly increased
survival [4]: notably increased survival
number of hematopoietic stem cells in bone marrow [5]: increased remarkably
